# Measurements reported in patent US20240075004A1, “VERY-LONG-CHAIN POLYUNSATURATED FATTY ACIDS, ELOVANOID HYDROXYLATED DERIVATIVES, AND METHODS OF USE” (The Board of Supervisors of Louisiana State University and …, priority 2020, published 2024).
# Experiments:
# p16INK4a = p16INK4a western blots of RPE/Choroid after subretinal OAβ injection; type: in vivo, C57BL/6J WT mice; conditions: elevated by OAβ injection; subretinal co-injection 200 ng with 10 μM OAβ, topical drops 200 nM twice a day; day 7
# Method: All animal experiments were performed according to ARVO Statement for the Use of Animals in Ophthalmic and Vision Research, and the protocol was approved by LSU Health New Orleans' Institutional Animal Care and Use Committee (IACUC). 6-month-old 5×FAD mice (stock number: 34848-JAX, The Jackson Laboratory, Bar Harbor, ME, USA), co-overexpress FAD mutant forms of human amyloid precursor protein (the Swedish mutation: K670N, M671L; the Florida mutation: I716V; and the London mutation: V7171) and presenilin 1 (PS1, encoded by Psen1: M146L, L286V) transgenes under transcriptional control of the neuron-specific mouse Thy1 promoter. 5×FAD mice were hemizygotes with respect to the transgenes and non-transgenic WT littermates. Genotyping was performed by PCR of tail DNA. All analyses were carried out blind with respect to the mice genotype. For the subretinal injection, 6-month-old C57BL/6J mice were anesthetized by an intraperitoneal injection of ketamine/xylazine, pupils dilated with 1.0% tropicamide (Akorn, IL, USA); and 0.5% Proparacaine Hydrochloride (Akorn) was applied for topical anesthesia. […]
# Samples were lysed by RIPA buffer and protein determined by Bradford assay (Bio-Rad, Hercules, CA, USA). […] Densitometry data were statistically analyzed at 95% confidence level.
# RPE and PRC = test: Subretinal injection of OAβ in WT mice: fundus/OCT and ZO-1 whole flat mount of RPE; type: in vivo, C57BL/6J WT mice; conditions: for PRC degeneration (fundus, OCT): ELV injected alone (200 ng subretinal), six-month-old WT mice, 7 days; for RPE morphology (ZO-1 flat mount) / protection of PRC (OCT, PRC layer thickness): co-injected with OAβ, followed by topical application during 7 days
# Method: All animal experiments were performed according to ARVO Statement for the Use of Animals in Ophthalmic and Vision Research, and the protocol was approved by LSU Health New Orleans' Institutional Animal Care and Use Committee (IACUC). 6-month-old 5×FAD mice (stock number: 34848-JAX, The Jackson Laboratory, Bar Harbor, ME, USA), co-overexpress FAD mutant forms of human amyloid precursor protein (the Swedish mutation: K670N, M671L; the Florida mutation: I716V; and the London mutation: V7171) and presenilin 1 (PS1, encoded by Psen1: M146L, L286V) transgenes under transcriptional control of the neuron-specific mouse Thy1 promoter. 5×FAD mice were hemizygotes with respect to the transgenes and non-transgenic WT littermates. Genotyping was performed by PCR of tail DNA. All analyses were carried out blind with respect to the mice genotype. For the subretinal injection, 6-month-old C57BL/6J mice were anesthetized by an intraperitoneal injection of ketamine/xylazine, pupils dilated with 1.0% tropicamide (Akorn, IL, USA); and 0.5% Proparacaine Hydrochloride (Akorn) was applied for topical anesthesia. Eyes were punctured with a 30-gauge needle between the corneoscleral junction and the ora serrata into the vitreous cavity without disturbing the lens. Compounds were delivered to the subretinal region using a 33-gauge blunt needle attached to a 5 μl Hamilton syringe (Hamilton Company, Reno, NV, USA) under a dissecting microscope. Non-injected mice were used as negative control while the PBS injected mice were used for sham. The injection volume was 2 μl containing PBS, 10 μM of OAβ, 10 μM of OAβ+200 ng ELV-N-32, 200 ng ELV-N-32 alone, 10 μM of OAβ+200 ng ELV-N-34 or 200 ng ELV-N-34 alone (n=12/group). All groups received topical drops: PBS only or ELV-N-32 (200 nM) or ELV-N-34 (200 nM), twice a day for 3 or 7 days.
# For the whole mount RPE staining, eyeballs were enucleated and pre-fixed in 4% PFA for 15 min. Then the eye cup containing RPE sheet were fixed in 4% PFA for 30 min, washed in PBS 3× following the blocking step for 1 h at room temperature. The immunostaining was performed by incubating primary antibody (ZO-1) for 48 h at 4° C. Then the eye cups were washed 3× with PBS and incubated with the secondary antibody for 12 h at 4° C. The primary human RPE cells as well as mouse eye cups were embedded in ProLong™ Gold Antifade Mounting medium (Thermo Fisher Scientific) between two glass coverslips. Pictures were taken with Olympus FV1200 microscope (Olympus, Japan). Images were analyzed by software ImageJ (rsb.info.nih.gov/ij/).
# 7 days post-injection, mice were anesthetized with ip ketamine/xylazine, pupil dilated by topical 1.0% tropicamide and placed in a custom-built holder for OCT imaging (body temperature maintained at 38° C. with a heat pad). Retinas were imaged along the horizontal meridian through the optic nerve head using a Heidelberg Spectralis HRA OCT system (Heidelberg Engineering, Heidelberg, Germany). Axial resolution is […]. The raw OCT B-scans cross-sectional images were exported with the scale in m and opened in ImageJ (http//imagej.nih.gov/ij). The PRC layer thickness was defined as the width from the tip of the outer nuclear layer, right after the outer plexiform layer, to the outer segments of PRC. Three measurements were made on the same scan and averaged. Mean and standard error of the mean (SEM) were calculated (n=4/group). Students' T-test was used to calculate statistical significance and a P-value less than 0.05 was considered significant.
# primary human RPE cells = test: Primary human RPE cells challenged with OAβ: SA-β-Gal staining and qPCR; type: cell-based; conditions: 10 μM OAβ; qPCR after 3 days, SA-β-Gal after 7 days
# Method: All experiments with primary human RPE cells were approved by the Institutional Review Board of LSUHNO and conducted in accordance with NIH guidelines. Cells were collected from anonymous donors provided by eye banks. Briefly, globes of a person, without eye pathology were obtained from NDRI within 24 hours after death from head trauma. Globes were opened, and RPE cells harvested and cultured (1, 2) and grown in MEM medium supplemented with 10% FBS, 5% NCS, non-essential amino acids, Penicillin-Streptomycin (100 U/mL), human fibroblast growth factor 10 ng/ml and incubated at 37° C. with a constant supply of 5% CO2. Cells integrity was validated as in previous study (3). For oligomeric Aβ treatment, cells were seeded in the 6-well plates, 30.000 cells/cm2. After 2 days, sub-confluent cells were treated with 10 μM OAβ or with PBS (vehicle control).
# Aβ (1-42) (HFIP-treated, ANASPEC Company, Fremont, CA, USA, Cat AS-64129) was resuspended by adding 1% NH4OH/Water and DMSO to obtain a concentration 500 μM and sonicated for 10 min. […]
# Cells were visualized using SA-β-Gal staining kit (Cat 9860, Cell Signaling Technology, MA, USA). […] Pictures were taken under brightfield microscope (Nikon Eclipse TS100) 200× magnification after the development of blue color, and cells counted in 10 different random fields per well. […]
# [1] = methyl ester or sodium salt, cited from earlier work; for infarct volumes: administered 1 hour following 2 hours of ischemia by MCA occlusion; for cell survival / neurovascular unit disruption: administered 1 hour following 2 hours of ischemia
Structure (SMILES),expression of the key senescence marker p16INK4a (western blots of RPE/Choroid) (p16INK4a),"PRC degeneration (fundus, OCT) (RPE and PRC)",RPE morphology (ZO-1 flat mount) (RPE and PRC),"protection of PRC (OCT, PRC layer thickness) (RPE and PRC)","OAβ-altered RPE cell morphology, SASP (SA-β-Gal staining) and expression of senescence, AMD, matrix metalloproteinase and autophagy-related genes (primary human RPE cells)",infarct volumes [1],cell survival [1],neurovascular unit disruption [1]
CC/C=C\C[C@H](O)\C=C/C=C/C=C/[C@H](O)C/C=C\C/C=C\CCCCCCCCCCCCC(=O)O [ELV-N-32],down regulated,did not yield PRC degeneration,restoration of RPE morphology,protection of PRC,reverted these effects,reduced,promoted,diminished
CC/C=C\C[C@H](O)\C=C/C=C/C=C/[C@H](O)C/C=C\C/C=C\CCCCCCCCCCCCCCC(=O)O [ELV-N-34],down regulated,did not yield PRC degeneration,restoration of RPE morphology,protection of PRC,reverted these effects,reduced,promoted,diminished
